For this experiment, the target named is T1, Ba/F3-TEL-FGFR3 cells (Homo sapiens, UniProt P22607).
T1 construct: fused on or other part: The N-terminal oligomerising part of TEL (ETV6) is fused before the intracellular kinase part of FGFR3; P41212 (Transcription factor ETV6)
As to the kind of experiment: FGFR3 cellular assay: proliferation of transformed Ba/F3-TEL-FGFR3 cells (AlamarBlue). It counts as cell-based. To be noted: 48 hours incubation, class symbols. On the procedure: Compounds of the invention are tested for their ability to inhibit transformed Ba/F3-TEL-FGFR3 cells proliferation, which is dependent on FGFR3 cellular kinase activity. Ba/F3-TEL-FGFR3 are cultured up to 800,000 cells/mL in suspension, with RPMI 1640 supplemented with 10% fetal bovine serum as the culture medium. Cells are dispensed into 384-well format plate at 5000 cell/well in […], culture medium. Compounds of the invention are dissolved and diluted in dimethylsulfoxide (DMSO). Twelve points 1:3 serial dilutions are made into DMSO to create concentrations gradient ranging typically from 10 mM to 0.05 μM. Cells are added with 50 nL of diluted compounds and incubated for 48 hours in cell culture incubator. AlamarBlue® (TREK Diagnostic Systems), which can be used to monitor the reducing environment created by proliferating cells, are added to cells at final concentration of 10%. After additional four hours of incubation in a 37° C. cell culture incubator, fluorescence signals from reduced AlamarBlue® (Excitation at 530 nm, Emission at 580 nm) are quantified on Analyst GT (Molecular Devices Corp.). IC50 values are calculated by linear regression analysis of the percentage inhibition of each compound at 12 concentrations.

The record followed here is patent publication US8026243B2, “[4,5′]Bipyrimidinyl-6,4′-diamine derivatives as protein kinase inhibitors” (Novartis AG, priority 2006, dated 2011).

Where only a bound is given, the exact number is not on record here.

T1 sequence (P22607 whole entry, change not shown, the tested form may be a part): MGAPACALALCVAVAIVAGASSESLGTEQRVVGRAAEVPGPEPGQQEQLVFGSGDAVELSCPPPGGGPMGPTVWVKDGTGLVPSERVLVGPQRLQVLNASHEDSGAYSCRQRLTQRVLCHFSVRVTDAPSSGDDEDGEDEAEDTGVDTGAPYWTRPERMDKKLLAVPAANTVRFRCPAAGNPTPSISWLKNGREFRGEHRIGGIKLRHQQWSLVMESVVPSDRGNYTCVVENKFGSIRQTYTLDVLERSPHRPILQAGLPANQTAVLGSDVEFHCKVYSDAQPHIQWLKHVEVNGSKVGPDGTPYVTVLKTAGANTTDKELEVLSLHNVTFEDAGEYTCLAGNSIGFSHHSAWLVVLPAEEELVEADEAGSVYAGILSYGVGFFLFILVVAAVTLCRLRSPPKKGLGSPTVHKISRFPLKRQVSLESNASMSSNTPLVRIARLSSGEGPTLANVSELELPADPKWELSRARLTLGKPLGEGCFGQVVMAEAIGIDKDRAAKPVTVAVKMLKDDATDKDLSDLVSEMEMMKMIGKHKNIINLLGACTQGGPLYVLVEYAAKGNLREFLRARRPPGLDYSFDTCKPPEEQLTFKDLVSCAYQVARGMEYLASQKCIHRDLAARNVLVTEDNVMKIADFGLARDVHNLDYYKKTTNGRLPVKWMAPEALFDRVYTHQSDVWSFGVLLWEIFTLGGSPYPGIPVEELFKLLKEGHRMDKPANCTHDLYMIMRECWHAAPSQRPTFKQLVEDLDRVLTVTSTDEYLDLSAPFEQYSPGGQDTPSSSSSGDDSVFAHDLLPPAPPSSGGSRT

In turn, `COc1cc(Nc2ncncc2-c2cc(Nc3ccc(CN4CCN(C(=O)CO)CC4)cn3)ncn2)c(F)c(OC)c1` [Compound 90] showed a GI50 of less than 100 nM. With `COc1cc(Nc2ncncc2-c2cc(Nc3cc(CN4CCN(C)CC4)ccn3)ncn2)c(Cl)c(OC)c1` [Compound 39, N4′-(2-Chloro-3,5-dimethoxy-phenyl)-N6-[4-(4-methyl-piperazin-1-ylmethyl)-pyridin-2-yl]-[4,5′]bipyrimidinyl-6,4′-diamine], the GI50 lay within 100 to 250 nM. To `CCN(CC)CCOc1ccc(Nc2cc(-c3cncnc3Nc3c(Cl)c(OC)cc(OC)c3Cl)ncn2)cc1` [Compound 17, N4′-(2,6-Dichloro-3,5-dimethoxy-phenyl)-N6-[4-(2-diethylamino-ethoxy)-phenyl]-[4,5′]bipyrimidinyl-6,4′-diamine] belongs less than 100 nM.

`COc1cc(OC)c(F)c(Nc2ncncc2-c2cc(Nc3cccc(C(C)O)c3)ncn2)c1F` (stereo not shown) [Compound 78, 1-{3-[4′-(2,6-Difluoro-3,5-dimethoxy-phenylamino)-[4,5′]bipyrimidinyl-6-ylamino]-phenyl}-ethanol] registered a GI50 of less than 100 nM. With `CCNC(=O)c1cc(OC)c(Cl)c(Nc2ncncc2-c2cc(Nc3ccc(CCN4CCOCC4)cn3)ncn2)c1Cl` [Compound 32, 2,4-Dichloro-N-ethyl-5-methoxy-3-{6-[5-(2-morpholin-4-yl-ethyl)-pyridin-2-ylamino]-[4,5′]bipyrimidinyl-4′-yl-amino}-benzamide], the concentration for 50% growth inhibition (GI50) lay within 100 to 250 nM.

In turn, `COc1cc(OC)c(Br)c(Nc2ncncc2-c2cc(Nc3cc(CN4CCOCC4)ccn3)ncn2)c1Cl` [Compound 51, N4′-(2-Bromo-6-chloro-3,5-dimethoxy-phenyl)-N6-(4-morpholin-4-ylmethyl-pyridin-2-yl)-[4,5′]bipyrimidinyl-6,4′-diamine] showed a GI50 of less than 100 nM. `COc1cc(OC)c(Cl)c(Nc2ncncc2-c2cc(Nc3ccc(CN4CCN(CCO)CC4)cn3)ncn2)c1C` [Compound 76, 2-(4-{6-[4′-(2-Chloro-3,5-dimethoxy-6-methyl-phenylamino)-[4,5′]bipyrimidinyl-6-ylamino]-pyridin-3-ylmethyl}-piperazin-1-yl)-ethanol] came in with a GI50 of less than 100 nM. For `COc1cc(OC)c(Cl)c(Nc2ncncc2-c2cc(Nc3ccc(CN4CCOCC4)cn3)ncn2)c1F` [Compound 44, N4′-(2-Chloro-6-fluoro-3,5-dimethoxy-phenyl)-N6-(5-morpholin-4-ylmethyl-pyridin-2-yl)-[4,5′]bipyrimidinyl-6,4′-diamine], the GI50 was less than 100 nM. With `COc1cc(OC)c(Cl)c(Nc2ncncc2-c2cc(Nc3cc(CN4CCN(C)CC4)ccn3)ncn2)c1Cl` [Compound 6, N4′-(2,6-Dichloro-3,5-dimethoxy-phenyl)-N6-[4-(4-methyl-piperazin-1-ylmethyl)-pyridin-2-yl]-[4,5′]bipyrimidinyl-6,4′-diamine] the figure was less than 100 nM. With `COc1cc(OC)c(Cl)c(Nc2nccnc2-c2cc(Nc3cc(CN4CCOCC4)ccn3)ncn2)c1Cl` [Compound 96, {6-[3-(2,6-Dichloro-3,5-dimethoxy-phenylamino)-pyrazin-2-yl]-pyrimidin-4-yl}-(4-morpholin-4-ylmethyl-pyridin-2-yl)-amine] the figure was less than 100 nM; with `COc1cc(Nc2ncncc2-c2cc(Nc3ccc(CCN4CCOCC4)cn3)ncn2)c(F)c(OC)c1` [Compound 84, N4′-(2-Fluoro-3,5-dimethoxy-phenyl)-N6-[5-(2-morpholin-4-yl-ethyl)-pyridin-2-yl]-[4,5′]bipyrimidinyl-6,4′-diamine], less than 100 nM; with `CCN1CCN(Cc2ccc(Nc3cc(-c4cncnc4Nc4cc(OC)cc(OC)c4Cl)ncn3)nc2)CC1` [Compound 38, N4′-(2-Chloro-3,5-dimethoxy-phenyl)-N6-[5-(4-ethyl-piperazin-1-ylmethyl)-pyridin-2-yl]-[4,5′]bipyrimidinyl-6,4′-diamine], 100 to 250 nM.

Turning to `COc1cc(OC)c(Cl)c(Nc2ncncc2-c2cc(Nc3cc(CN4CCCC4)ccn3)ncn2)c1F` [Compound 60, N4′-(2-Chloro-6-fluoro-3,5-dimethoxy-phenyl)-N6-(4-pyrrolidin-1-ylmethyl-pyridin-2-yl)-[4,5′]bipyrimidinyl-6,4′-diamine], the GI50 was less than 100 nM. To `COc1cc(OC)c(Cl)c(Nc2ncncc2-c2cc(Nc3ccc(CN4CCN(C(N)=O)CC4)cn3)ncn2)c1Cl` [Compound 15, 4-{6-[4′-(2,6-Dichloro-3,5-dimethoxy-phenylamino)-[4,5′]bipyrimidinyl-6-ylamino]-pyridin-3-ylmethyl}-piperazine-1-carboxylic acid amide] belongs less than 100 nM; to `Nc1cc(-c2nccnc2Nc2c(Cl)cccc2Cl)ncn1` [Compound 106, 6-(3-(2,6-dichlorophenylamino)pyrazin-2-yl)pyrimidin-4-amine], less than 100 nM; to `COc1ccc(F)c(Nc2nccnc2-c2cc(Nc3cc(CN4CCOCC4)ccn3)ncn2)c1F` [Compound 105, {6-[3-(2,6-Difluoro-3-methoxy-phenylamino)-pyrazin-2-yl]-pyrimidin-4-yl}-(4-(morpholin-4-ylmethyl)-pyridin-2-yl)-amine], less than 100 nM. With `COC(=O)c1cc(OC)c(Cl)c(Nc2ncncc2-c2cc(Nc3ccc(CN4CCOCC4)cn3)ncn2)c1Cl` [Compound 27, 2,4-Dichloro-5-methoxy-3-[6-(5-morpholin-4-ylmethyl-pyridin-2-ylamino)-[4,5′]bipyrimidinyl-4′-ylamino]-benzoic acid methyl ester] the figure was less than 100 nM. In the case of `CCN1CCN(c2ccc(Nc3cc(-c4cncnc4Nc4c(F)c(OC)cc(OC)c4Cl)ncn3)cc2)CC1` [Compound 59, N4′-(2-Chloro-6-fluoro-3,5-di-methoxy-phenyl)-N6-[4-(4-ethyl-piperazin-1-yl)-phenyl]-[4,5′]bipyrimidinyl-6,4′-diamine], the GI50 is less than 100 nM.

Compound `CCN1CCN(Cc2ccc(Nc3cc(-c4cncnc4Nc4c(Cl)c(OC)cc(C(=O)NC5CC5)c4Cl)ncn3)nc2)CC1` [Compound 58, 2,4-Dichloro-N-cyclopropyl-3-{6-[5-(4-ethyl-piperazin-1-ylmethyl)-pyridin-2-ylamino]-[4,5′]bipyrimidinyl-4′-ylamino}-5-methoxy-benzamide] registered a GI50 of less than 100 nM. To `COc1cc(C(=O)NC2CC2)c(Cl)c(Nc2ncncc2-c2cc(Nc3ccc(CN4CCOCC4)cn3)ncn2)c1Cl` [Compound 57, 2,4-Dichloro-N-cyclopropyl-5-methoxy-3-[6-(5-morpholin-4-ylmethyl-pyridin-2-ylamino)-[4,5′]bipyrimidinyl-4′-ylamino]-benzamide] belongs less than 100 nM. In turn, `COc1cc(OC)c(F)c(Nc2ncncc2-c2cc(Nc3ccc(CCN4CCOCC4)cn3)ncn2)c1F` [Compound 85, N4′-(2,6-Difluoro-3,5-dimethoxy-phenyl)-N6-[5-(2-morpholin-4-yl-ethyl)-pyridin-2-yl]-[4,5′]bipyrimidinyl-6,4′-diamine] had a GI50 of less than 100 nM. To `COc1cc(OC)c(Cl)c(Nc2ncncc2-c2cc(Nc3ccc(CN4CCOCC4)cn3)ncn2)c1C` [Compound 52, N4′-(2-Chloro-3,5-dimethoxy-6-methyl-phenyl)-N6-(5-morpholin-4-ylmethyl-pyridin-2-yl)-[4,5′]bipyrimidinyl-6,4′-diamine] belongs less than 100 nM; to `COc1cc(Nc2ncncc2-c2cc(Nc3cc(CN4CCOCC4)ccn3)ncn2)c(F)c(OC)c1` [Compound 71, N4′-(2-Fluoro-3,5-dimethoxy-phenyl)-N6-(4-morpholin-4-ylmethyl-pyridin-2-yl)-[4,5′]bipyrimidinyl-6,4′-diamine], less than 100 nM. `COc1cc(OC)c(Cl)c(Nc2nccnc2-c2cc(Nc3cc(CN4CCOCC4)ccn3)ncn2)c1F` [Compound 97, {6-[3-(2-chloro-3,5-dimethoxy-6-fluoro phenylamino)-pyrazin-2-yl]-pyrimidin-4-yl}-(4-morpholin-4-ylmethyl-pyridin-2-yl)-amine] returned a GI50 of less than 100 nM. With `CCNC(=O)c1cc(OC)c(Cl)c(Nc2ncncc2-c2cc(Nc3cc(CN4CCN(C)CC4)ccn3)ncn2)c1Cl` [Compound 30, 2,4-Dichloro-N-ethyl-5-methoxy-3-{6-[4-(4-methyl-piperazin-1-ylmethyl)-pyridin-2-ylamino]-[4,5′]bipyrimidinyl-4′-ylamino}-benzamide] the figure was less than 100 nM; with `COc1cc(OC)c(Cl)c(Nc2ncncc2-c2cc(Nc3ccc(CN4CCN(C(C)=O)CC4)cn3)ncn2)c1F` [Compound 61, 1-(4-{6-[4′-(2-Chloro-6-fluoro-3,5-dimethoxy-phenylamino)-[4,5′]bipyrimidinyl-6-ylamino]-pyridin-3-ylmethyl}-piperazin-1-yl)-ethanone], less than 100 nM; with `COc1cc(OC)c(Cl)c(Nc2ncncc2-c2cc(Nc3ccc(C(C)O)cn3)ncn2)c1Cl` (stereo not shown) [Compound 82, 1-{6-[4′-(2,6-Dichloro-3,5-dimethoxy-phenylamino)-[4,5′]bipyrimidinyl-6-ylamino]-pyridin-3-yl}-ethanol], less than 100 nM. In turn, `COc1cc(OC)c(Cl)c(Nc2nccnc2-c2cc(Nc3ccc(CN4CCOCC4)cn3)ncn2)c1Cl` [Compound 94, {6-[3-(2,6-Dichloro-3,5-dimethoxy-phenylamino)-pyrazin-2-yl]-pyrimidin-4-yl}-(5-morpholin-4-ylmethyl-pyridin-2-yl)-amine] displayed a GI50 of less than 100 nM.

Broadly, the GI50 is the concentration that inhibits growth by half. Low values mean more potent growth inhibition, high ones less potent growth inhibition.
